Reference: PubChem BioAssay (NCI)
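Abbreviation: GI50, concentration required for 50% inhibition of growth. Definition used: TGI = concentration required for complete inhibition of growth.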

Legend:
Test in all cases: DTP human tumour cell line panel, 384-well format
[1] = system: 786-0 renal
[2] = system: A498 renal
[3] = system: A549 NSCLC
[4] = system: ACHN renal
[5] = system: BT-549 breast
[6] = system: CAKI-1 renal
[7] = system: CCRF-CEM leukemia
[8] = system: COLO 205 colon
[9] = system: DU-145 prostate
[10] = system: EKVX NSCLC
[11] = system: HCC-2998 colon
[12] = system: HCT-116 colon
[13] = system: HCT-15 colon
[14] = system: HL-60(TB) leukemia
[15] = system: HOP-62 NSCLC
[16] = system: HOP-92 NSCLC
[17] = system: HS 578T breast
[18] = system: HT29 colon
[19] = system: IGROV1 ovarian
[20] = system: K-562 leukemia
[21] = system: KM12 colon
[22] = system: LOX IMVI melanoma
[23] = system: M14 melanoma
[24] = system: MALME-3M melanoma
[25] = system: MCF7 breast
[26] = system: MDA-MB-231 breast
[27] = system: MDA-MB-435 melanoma
[28] = system: MDA-MB-468 breast
[29] = system: MOLT-4 leukemia
[30] = system: NCI-H226 lung
[31] = system: NCI-H23 lung
[32] = system: NCI-H322M lung
[33] = system: NCI-H460 NSCLC
[34] = system: NCI-H522 lung
[35] = system: NCI/ADR-RES ovarian
[36] = system: OVCAR-3 ovarian
[37] = system: OVCAR-4 ovarian
[38] = system: OVCAR-5 ovarian
[39] = system: PC-3 prostate
[40] = system: RPMI-8226 leukemia
[41] = system: RXF 393 renal
[42] = system: SF-268 CNS
[43] = system: SF-295 CNS
[44] = system: SF-539 CNS
[45] = system: SK-MEL-2 melanoma
[46] = system: SK-MEL-28 melanoma
[47] = system: SK-MEL-5 melanoma
[48] = system: SK-OV-3 ovarian
[49] = system: SN12C renal
[50] = system: SNB-19 CNS
[51] = system: SNB-75 CNS
[52] = system: SR leukemia
[53] = system: SW-620 colon
[54] = system: T-47D breast
[55] = system: TK-10 renal
[56] = system: U251 glioblastoma
[57] = system: UACC-257 melanoma
[58] = system: UACC-62 melanoma
[59] = system: UO-31 renal

COc1cc(-c2ncn(/C=C\C(=O)OC(C)C)n2)cc(C(F)(F)F)c1
GI50 [1]: 37.3 nM
TGI [1]: 1200 nM
GI50 [2]: 114 nM
TGI [2]: 1250 nM
GI50 [3]: 87.4 nM
TGI [3]: 1360 nM
GI50 [4]: 57.5 nM
TGI [4]: 1500 nM
GI50 [5]: 19 nM
TGI [5]: 46.5 nM
GI50 [6]: 34.7 nM
TGI [6]: 3950 nM
GI50 [7]: 40.9 nM
TGI [7]: 182 nM
GI50 [8]: 48.2 nM
TGI [8]: 1260 nM
GI50 [9]: 162 nM
TGI [9]: 866 nM
GI50 [10]: 429 nM
TGI [10]: 6090 nM
GI50 [11]: 89.2 nM
TGI [11]: 838 nM
GI50 [12]: 85 nM
TGI [12]: 311 nM
GI50 [13]: 45.8 nM
TGI [13]: 1040 nM
GI50 [14]: 23.7 nM
TGI [14]: 118 nM
GI50 [15]: 291 nM
TGI [15]: 1530 nM
GI50 [16]: 69.5 nM
TGI [16]: 1550 nM
GI50 [17]: 68.1 nM
TGI [17]: 461 nM
GI50 [18]: 74.3 nM
TGI [18]: 1120 nM
GI50 [19]: 92.8 nM
TGI [19]: 2090 nM
GI50 [20]: 30.4 nM
TGI [20]: 177 nM
GI50 [21]: 217 nM
TGI [21]: 1150 nM
GI50 [22]: 198 nM
TGI [22]: 826 nM
GI50 [23]: 123 nM
TGI [23]: 382 nM
GI50 [24]: 171 nM
TGI [24]: 609 nM
GI50 [25]: 65.9 nM
TGI [25]: 982 nM
GI50 [26]: 51.4 nM
TGI [26]: 663 nM
GI50 [27]: 43.3 nM
TGI [27]: 210 nM
GI50 [28]: 150 nM
TGI [28]: 336 nM
GI50 [29]: 12.6 nM
TGI [29]: 25.9 nM
GI50 [30]: 20.8 nM
TGI [30]: 483 nM
GI50 [31]: 56.4 nM
TGI [31]: 1140 nM
GI50 [32]: 295 nM
TGI [32]: 2530 nM
GI50 [33]: 29.6 nM
TGI [33]: 163 nM
TGI [34]: 92.6 nM
GI50 [35]: 54.9 nM
TGI [35]: 1270 nM
GI50 [36]: 26.4 nM
TGI [36]: 151 nM
GI50 [37]: 244 nM
TGI [37]: 2040 nM
GI50 [38]: 117 nM
TGI [38]: 10000 nM
GI50 [39]: 37.4 nM
TGI [39]: 232 nM
GI50 [40]: 13.6 nM
TGI [40]: 32.5 nM
GI50 [41]: 16.6 nM
TGI [41]: 68.7 nM
GI50 [42]: 29.9 nM
TGI [42]: 88.8 nM
GI50 [43]: 214 nM
TGI [43]: 2300 nM
GI50 [44]: 20.5 nM
TGI [44]: 71.2 nM
GI50 [45]: 44.3 nM
TGI [45]: 69.5 nM
GI50 [46]: 222 nM
TGI [46]: 1610 nM
GI50 [47]: 137 nM
TGI [47]: 601 nM
GI50 [48]: 2340 nM
TGI [48]: 14300 nM
GI50 [49]: 283 nM
TGI [49]: 1770 nM
GI50 [50]: 444 nM
TGI [50]: 3150 nM
GI50 [51]: 91.9 nM
TGI [51]: 311 nM
GI50 [52]: 11 nM
TGI [52]: 23.7 nM
GI50 [53]: 56.1 nM
TGI [53]: 1250 nM
GI50 [54]: 229 nM
TGI [54]: 3730 nM
GI50 [55]: 37.9 nM
TGI [55]: 1200 nM
GI50 [56]: 39.2 nM
TGI [56]: 275 nM
GI50 [57]: 552 nM
TGI [57]: 4600 nM
GI50 [58]: 42.4 nM
TGI [58]: 179 nM
GI50 [59]: 166 nM
TGI [59]: 1580 nM
